Target: Histone deacetylase 2 (Homo sapiens, UniProt Q92769)
Assay: Inhibition of full-length recombinant human C-terminal GST tagged HDAC2 expressed in Sf9 insect cells using aminoluciferin peptide substrate at 100 nM preincubated for 3 hrs followed by substrate addition and measured after 30 mins by HDAC-Glo I/II chemiluminescence assay
Conditions: time 3.5 hrs

Chain of Histone deacetylase 2 (Q92769 whole entry): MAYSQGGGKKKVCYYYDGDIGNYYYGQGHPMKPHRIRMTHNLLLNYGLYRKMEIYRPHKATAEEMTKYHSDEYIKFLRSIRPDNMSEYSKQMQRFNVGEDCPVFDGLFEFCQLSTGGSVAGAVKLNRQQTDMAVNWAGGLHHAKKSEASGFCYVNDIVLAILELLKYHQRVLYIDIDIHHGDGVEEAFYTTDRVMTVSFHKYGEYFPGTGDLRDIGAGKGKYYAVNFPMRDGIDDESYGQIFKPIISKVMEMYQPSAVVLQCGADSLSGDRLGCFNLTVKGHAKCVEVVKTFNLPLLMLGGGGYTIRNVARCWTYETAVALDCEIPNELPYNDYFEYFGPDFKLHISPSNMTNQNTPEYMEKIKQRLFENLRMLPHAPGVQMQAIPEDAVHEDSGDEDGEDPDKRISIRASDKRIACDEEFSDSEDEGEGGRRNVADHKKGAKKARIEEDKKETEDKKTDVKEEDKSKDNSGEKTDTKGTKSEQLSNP

Row | Structure (SMILES) | inhibition [%]
1 | Nc1ccc(-c2cccnc2)cc1NC(=O)CCc1cn(CCN2CCc3ccccc3C2)nn1 | 5
2 | Cc1cccc(CCn2cc(CCC(=O)Nc3cc(-c4ccsc4)ccc3N)nn2)c1 | 26
3 | Cc1cccc(CCn2cc(-c3ccc(C(=O)Nc4cc(-c5cccs5)ccc4N)cc3)nn2)c1 | 26
4 | Nc1ccc(-c2cccs2)cc1NC(=O)c1ccc(-c2cn(CCc3c[nH]c4ccccc34)nn2)cc1 | 19
5 | Nc1ccc(-c2cccs2)cc1NC(=O)c1ccc(-c2cn(CCc3ccc(C(=O)O)cc3)nn2)cc1 | 46
6 | Nc1ccc(-c2ccccc2)cc1NC(=O)c1cn(CCN2CCOCC2)nn1 | 0
7 | Nc1ccc(-c2cccs2)cc1NC(=O)c1ccc(-c2cn(CCc3ccccc3C(F)(F)F)nn2)s1 | 0
8 | Nc1ccc(-c2cccs2)cc1NC(=O)c1cccc(-c2cn(Cc3ccc4ccccc4n3)nn2)c1 | 4
9 | Nc1ccc(-c2ccsc2)cc1NC(=O)CCc1cn(CCCCCC(=O)O)nn1 | 0
10 | Nc1ccc(-c2cccs2)cc1NC(=O)c1ccc(-c2cn(CCc3ccccn3)nn2)s1 | 71
11 | Nc1ccc(-c2cccs2)cc1NC(=O)c1cccc(-c2cn(CCCc3ccccc3)nn2)c1 | 4
12 | Nc1ccc(-c2ccc(F)cc2)cc1NC(=O)CCc1cn(CCc2cccc3ccccc23)nn1 | 0
13 | COc1ccccc1CCn1cc(CCC(=O)Nc2cc(-c3ccc(F)cc3)ccc2N)nn1 | 10
14 | Cc1ccccc1CCn1cc(CCC(=O)Nc2cc(-c3ccccc3)ccc2N)nn1 | 4
15 | Nc1ccc(-c2ccccc2)cc1NC(=O)CCc1cn(Cc2ccc(Oc3ccccc3)cc2)nn1 | 0
16 | COc1ccc(CCn2cc(C(=O)Nc3cc(-c4ccsc4)ccc3N)nn2)cc1 | 6
17 | Nc1ccc(-c2cccs2)cc1NC(=O)CCc1cn(-c2ccc(O)cc2)nn1 | 12
18 | Nc1ccc(-c2cccnc2)cc1NC(=O)CCc1cn(-c2ccccc2-c2ccccc2)nn1 | 9
19 | Nc1ccc(-c2cccs2)cc1NC(=O)c1cccc(-c2cn(CCc3ccccc3)nn2)c1 | 17

Row | Structure (SMILES) | inhibition [%]
20 | COc1ccc(Cn2cc(C(=O)Nc3cc(-c4cccs4)ccc3N)nn2)cc1 | 17
21 | Nc1ccc(-c2cccs2)cc1NC(=O)c1ccc(-c2cn(CCCCCCCC(=O)O)nn2)cc1 | 0
22 | Cc1csc(CCn2cc(-c3ccc(C(=O)Nc4cc(-c5cccs5)ccc4N)s3)nn2)n1 | 74
23 | Nc1ccc(-c2ccsc2)cc1NC(=O)c1cn(CCc2cccc(F)c2)nn1 | 0
24 | Nc1ccc(-c2cccs2)cc1NC(=O)c1cn(Cc2ccc(Oc3ccccc3)cc2)nn1 | 0
25 | Nc1ccc(-c2ccsc2)cc1NC(=O)CCc1cn(CCc2ccccc2Cl)nn1 | 11
26 | Cc1ccc(-n2cc(CCC(=O)Nc3cc(-c4ccsc4)ccc3N)nn2)cc1C | 0
27 | Nc1ccc(-c2ccsc2)cc1NC(=O)c1cn(CCc2ccccn2)nn1 | 1
28 | Nc1ccc(-c2cccs2)cc1NC(=O)CCc1cn(CCN2CCOCC2)nn1 | 1
29 | Nc1ccc(-c2cccs2)cc1NC(=O)c1ccc(-c2cn(CCCc3ccccc3)nn2)cc1 | 2
30 | Nc1ccc(-c2cccs2)cc1NC(=O)c1cn(CC2CCCCC2)nn1 | 1
31 | Nc1ccc(-c2ccsc2)cc1NC(=O)CCc1cn(-c2ccc([N+](=O)[O-])cc2)nn1 | 0
32 | Nc1ccc(-c2cccnc2)cc1NC(=O)CCc1cn(Cc2cc3ccccc3s2)nn1 | 9
33 | Nc1ccc(-c2cccs2)cc1NC(=O)c1cccc(-c2cn(CC34CC5CC(CC(C5)C3)C4)nn2)c1 | 0
34 | Nc1ccc(-c2ccsc2)cc1NC(=O)c1cn(Cc2cccc3ccccc23)nn1 | 4
35 | Cc1csc(CCn2cc(CCC(=O)Nc3cc(-c4ccccc4)ccc3N)nn2)n1 | 29
36 | Nc1ccc(-c2cccnc2)cc1NC(=O)CCc1cn(CCC2CCCC2)nn1 | 0
37 | CCc1ccc(Cn2cc(-c3ccc(C(=O)Nc4cc(-c5cccs5)ccc4N)cc3)nn2)cc1 | 0
38 | Cc1cccc(C)c1NC(=O)Cn1cc(-c2ccc(C(=O)Nc3cc(-c4cccs4)ccc3N)s2)nn1 | 48

Row | Structure (SMILES) | inhibition [%]
39 | Nc1ccc(-c2cccs2)cc1NC(=O)c1cccc(-c2cn(Cc3cccc(C(=O)O)c3)nn2)c1 | 17
40 | Nc1ccc(-c2ccccc2)cc1NC(=O)c1cn(Cc2ccc3ccccc3n2)nn1 | 6
41 | COc1ccc(CCn2cc(-c3ccc(C(=O)Nc4cc(-c5cccs5)ccc4N)s3)nn2)cc1 | 30
42 | Nc1ccc(-c2ccsc2)cc1NC(=O)c1cn(Cc2ccc(-c3ccccc3)cc2)nn1 | 0
43 | Cc1cccc(C)c1NC(=O)Cn1cc(CCC(=O)Nc2cc(-c3cccs3)ccc2N)nn1 | 19
44 | Nc1ccc(-c2cccs2)cc1NC(=O)c1ccc(-c2cn(CCN3CCc4ccccc4C3)nn2)s1 | 32
45 | Nc1ccc(-c2cccnc2)cc1NC(=O)CCc1cn(CCc2ccc(C(=O)O)cc2)nn1 | 9
46 | Nc1ccc(-c2cccs2)cc1NC(=O)CCc1cn(CCc2cccc(C(F)(F)F)c2)nn1 | 3
47 | Nc1ccc(-c2cccs2)cc1NC(=O)CCc1cn(CCc2ccc(Cl)cc2)nn1 | 24
48 | Nc1ccc(-c2ccc(F)cc2)cc1NC(=O)CCc1cn(Cc2nc3ccccc3[nH]2)nn1 | 32
49 | Nc1ccc(-c2cccnc2)cc1NC(=O)CCc1cn(CCc2ccc(F)cc2)nn1 | 3
50 | CCc1ccc(Cn2cc(CCC(=O)Nc3cc(-c4ccc(F)cc4)ccc3N)nn2)cc1 | 2
51 | Nc1ccc(-c2cccs2)cc1NC(=O)c1ccc(-c2cn(Cc3cc4ccccc4s3)nn2)s1 | 0
52 | Nc1ccc(-c2cccs2)cc1NC(=O)c1ccc(-c2cn(CC34CC5CC(CC(C5)C3)C4)nn2)cc1 | 0
53 | Nc1ccc(-c2cccs2)cc1NC(=O)c1ccc(-c2cn(/C=C/c3ccccc3)nn2)cc1 | 0
54 | Nc1ccc(-c2ccc(F)cc2)cc1NC(=O)CCc1cn(/C=C/c2ccccc2)nn1 | 3
55 | Nc1ccc(-c2ccsc2)cc1NC(=O)CCc1cn(-c2ccc(Br)cc2)nn1 | 3
56 | Nc1ccc(-c2ccccc2)cc1NC(=O)CCc1cn(CCc2ccc(C(=O)O)cc2)nn1 | 33

The remaining lines, values ahead:

Row | inhibition [%] | Structure (SMILES)
57 | 13 | Nc1ccc(-c2ccccc2)cc1NC(=O)CCc1cn(CCc2ccc([N+](=O)[O-])cc2)nn1
58 | 0 | Nc1ccc(-c2ccc(F)cc2)cc1NC(=O)CCc1cn(Cc2cccc(C(=O)O)c2)nn1
59 | 4 | Nc1ccc(-c2cccs2)cc1NC(=O)c1cccc(-c2cn(CCc3cccc([N+](=O)[O-])c3)nn2)c1
60 | 0 | Nc1ccc(-c2cccs2)cc1NC(=O)c1cccc(-c2cn(Cc3cccc(-c4ccccc4)c3)nn2)c1
61 | 0 | Cc1ccccc1CCn1cc(C(=O)Nc2cc(-c3ccc(F)cc3)ccc2N)nn1
62 | 19 | Nc1ccc(-c2cccs2)cc1NC(=O)CCc1cn(Cc2nc3ccccc3[nH]2)nn1
63 | 13 | Nc1ccc(-c2cccs2)cc1NC(=O)c1cccc(-c2cn(-c3ccc(O)cc3)nn2)c1
64 | 0 | Nc1ccc(-c2cccnc2)cc1NC(=O)CCc1cn(-c2cccc3ccccc23)nn1
65 | 30 | Cc1csc(CCn2cc(CCC(=O)Nc3cc(-c4cccs4)ccc3N)nn2)n1
66 | 9 | Nc1ccc(-c2cccs2)cc1NC(=O)c1cn(CCc2ccc(C(F)(F)F)cc2)nn1
67 | 0 | Nc1ccc(-c2ccsc2)cc1NC(=O)CCc1cn(CCCCC(=O)O)nn1
68 | 0 | Cc1csc(CCn2cc(C(=O)Nc3cc(-c4ccccc4)ccc3N)nn2)n1
69 | 0 | Nc1ccc(-c2cccs2)cc1NC(=O)c1cn(-c2cccc3ccccc23)nn1
70 | 25 | Cc1ccc(CCn2cc(CCC(=O)Nc3cc(-c4ccc(F)cc4)ccc3N)nn2)cc1
71 | 0 | Nc1ccc(-c2ccc(F)cc2)cc1NC(=O)CCc1cn(Cc2ccc(Oc3ccccc3)cc2)nn1
72 | 23 | Nc1ccc(-c2ccc(F)cc2)cc1NC(=O)c1cn(CCCCCCC(=O)O)nn1
73 | 55 | Nc1ccc(-c2cccs2)cc1NC(=O)c1ccc(-c2cn(CCc3ccc(C(=O)O)cc3)nn2)s1
74 | 5 | Nc1ccc(-c2cccnc2)cc1NC(=O)CCc1cn(CCC23CC4CC(CC(C4)C2)C3)nn1
75 | 0 | Nc1ccc(-c2cccnc2)cc1NC(=O)CCc1cn(CCN2CCOCC2)nn1

Row | inhibition [%] | Structure (SMILES)
76 | 15 | Nc1ccc(-c2ccc(F)cc2)cc1NC(=O)CCc1cn(CCCCCCCC(=O)O)nn1
77 | 0 | Nc1ccc(-c2cccs2)cc1NC(=O)c1cn(CCc2ccc(F)cc2)nn1
78 | 0 | Nc1ccc(-c2ccsc2)cc1NC(=O)c1cn(CC(=O)c2ccccc2)nn1
79 | 0 | Nc1ccc(-c2cccs2)cc1NC(=O)c1cn(Cc2ccc(-c3ccccc3)cc2)nn1
80 | 0 | Nc1ccc(-c2cccs2)cc1NC(=O)c1cccc(-c2cn(CCc3ccc(Cl)cc3)nn2)c1
81 | 6 | Nc1ccc(-c2ccccc2)cc1NC(=O)c1cn(CCCc2ccccc2)nn1
82 | 13 | Nc1ccc(-c2cccs2)cc1NC(=O)c1cn(Cc2cccc3ccccc23)nn1
83 | 0 | Nc1ccc(-c2cccs2)cc1NC(=O)c1ccc(-c2cn(Cc3ccc(Oc4ccccc4)cc3)nn2)cc1
84 | 0 | Nc1ccc(-c2ccc(F)cc2)cc1NC(=O)c1cn(C[S+]([O-])c2ccccc2)nn1 (centres undefined)
85 | 51 | Nc1ccc(-c2cccs2)cc1NC(=O)c1ccc(-c2cn(CCCCC(=O)O)nn2)s1
86 | 41 | Nc1ccc(-c2cccs2)cc1NC(=O)c1cccc(-c2cn(CCCCCC(=O)O)nn2)c1
87 | 4 | COc1ccc(Cn2cc(-c3ccc(C(=O)Nc4cc(-c5cccs5)ccc4N)cc3)nn2)cc1
88 | 29 | Nc1ccc(-c2ccc(F)cc2)cc1NC(=O)c1cn(CCCCCCCC(=O)O)nn1
89 | 16 | Nc1ccc(-c2ccc(F)cc2)cc1NC(=O)CCc1cn(CCc2ccsc2)nn1
90 | 0 | Nc1ccc(-c2cccnc2)cc1NC(=O)CCc1cn(C[S+]([O-])c2ccccc2)nn1 (centres undefined)
91 | 0 | Nc1ccc(-c2ccccc2)cc1NC(=O)c1cn(CCCCCCCC(=O)O)nn1
92 | 3 | Nc1ccc(-c2ccccc2)cc1NC(=O)CCc1cn(-c2ccc(O)cc2)nn1
93 | 6 | Nc1ccc(-c2cccs2)cc1NC(=O)c1cccc(-c2cn(CCc3c[nH]c4ccccc34)nn2)c1
94 | 0 | Nc1ccc(-c2ccc(F)cc2)cc1NC(=O)c1cn(CCc2ccc(F)cc2)nn1
